# US12398097B2, “WDR5-MYC inhibitors” (Vanderbilt University, priority 2019, dated 2025)
# Target: WDR5 (Homo sapiens, UniProt P61964)
# Experiment: Competition-based fluorescence polarization anisotropy assay
# Conditions: binding to WDR5; displacement of FITC-labeled small molecule probe (analogous to Example J2 or HCH-25) or peptide probe FITC-AHx-SEEEIDVVSV; pH 6.0; Ki converted from IC50
# In short: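 Ki values derive from displacement of either a fluorescent small-molecule probe or a FITC-peptide probe from WDR5, monitored by fluorescence polarization. Assay run at pH 6.0 in 200 mM phosphate with 300 mM NaCl, 0.5 mM TCEP and 0.1% Chaps.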
row,SMILES,Ki
1,"COc1cc(F)c(Br)cc1S(=O)(=O)Nc1cc(C2CC2)cc(C(N)=O)c1O [Example J106, 3-((5-Bromo-4-fluoro-2-methoxyphenyl)sulfonamido)-5-cyclopropyl-2-hydroxybenzamide]",1.53 µM
2,"O=C(O)c1cc(F)cc(NS(=O)(=O)c2cc(Br)ccc2O)c1O [Example J107, 3-((5-Bromo-2-hydroxyphenyl)sulfonamido)-5-fluoro-2-hydroxybenzoic acid]",1.48 µM
3,"NC(=O)c1cc(F)cc(NS(=O)(=O)c2cc(Br)ccc2O)c1O [Example J108, 3-((5-Bromo-2-hydroxyphenyl)sulfonamido)-5-fluoro-2-hydroxybenzamide]",2.24 µM
4,"CNC(=O)c1cc(F)cc(NS(=O)(=O)c2cc(Br)ccc2O)c1O [Example J109, 3-((5-Bromo-2-hydroxyphenyl)sulfonamido)-5-fluoro-2-hydroxy-N-methylbenzamide]",3.47 µM
5,"COCCNC(=O)c1cc(F)cc(NS(=O)(=O)c2cc(Br)ccc2O)c1O [Example J110, 3-((5-Bromo-2-hydroxyphenyl)sulfonamido)-5-fluoro-2-hydroxy-N-(2-methoxyethyl)benzamide]",2.26 µM
6,"O=C(NCCO)c1cc(F)cc(NS(=O)(=O)c2cc(Br)ccc2O)c1O [Example J111, 3-((5-Bromo-2-hydroxyphenyl)sulfonamido)-5-fluoro-2-hydroxy-N-(2-hydroxyethyl)benzamide]",2.93 µM
7,"O=C(O)c1cc(C2CC2)cc(NS(=O)(=O)c2cc(Br)ccc2O)c1F [Example J112, 3-((5-Bromo-2-hydroxyphenyl)sulfonamido)-5-cyclopropyl-2-fluorobenzoic acid]",0.78 µM
8,"O=C(O)c1cc(C2CC2)cc(NS(=O)(=O)c2cc(Br)cc3cccnc23)c1F [Example J113, 3-((6-Bromoquinoline)-8-sulfonamido)-5-cyclopropyl-2-fluorobenzoic acid]",1.71 µM
9,"O=C(O)c1cc(NS(=O)(=O)c2cc(Br)ccc2O)cc(C2CC2)c1F [Example J114, 5-((5-Bromo-2-hydroxyphenyl)sulfonamido)-3-cyclopropyl-2-fluorobenzoic acid]",0.52 µM
10,"O=C(O)c1c(O)c(NS(=O)(=O)c2cc(Br)ccc2O)cc(C2CC2)c1F [Example J117, 3-((5-Bromo-2-hydroxyphenyl)sulfonamido)-5-cyclopropyl-6-fluoro-2-hydroxybenzoic acid]",0.03 µM
11,"O=C(O)c1c(O)c(NS(=O)(=O)c2cc(Br)cc(Cl)c2O)cc(C2CC2)c1F [Example J118, 3-((5-Bromo-3-chloro-2-hydroxyphenyl)sulfonamido)-5-cyclopropyl-6-fluoro-2-hydroxybenzoic acid]",0.35 µM
12,"O=C(O)c1c(O)c(NS(=O)(=O)c2cc(Br)cc(F)c2O)cc(C2CC2)c1F [Example J119, 3-((5-Bromo-3-fluoro-2-hydroxyphenyl)sulfonamido)-5-cyclopropyl-6-fluoro-2-hydroxybenzoic acid]",0.13 µM
13,"NC(=O)c1c(O)c(NS(=O)(=O)c2cc(Br)ccc2O)cc(C2CC2)c1F [Example J123, 3-((5-Bromo-2-hydroxyphenyl)sulfonamido)-5-cyclopropyl-6-fluoro-2-hydroxybenzamide]",0.36 µM
14,"CNC(=O)c1c(O)c(NS(=O)(=O)c2cc(Br)ccc2O)cc(C2CC2)c1F [Example J124, 3-((5-Bromo-2-hydroxyphenyl)sulfonamido)-5-cyclopropyl-6-fluoro-2-hydroxy-N-methylbenzamide]",0.28 µM
15,"O=C(NCCN1CCOCC1)c1c(O)c(NS(=O)(=O)c2cc(Br)ccc2O)cc(C2CC2)c1F [Example J125, 3-((5-Bromo-2-hydroxyphenyl)sulfonamido)-5-cyclopropyl-6-fluoro-2-hydroxy-N-(2-morpholinoethyl)benzamide]",1.32 µM
16,"O=C(NCCO)c1c(O)c(NS(=O)(=O)c2cc(Br)ccc2O)cc(C2CC2)c1F [Example J126, 3-((5-Bromo-2-hydroxyphenyl)sulfonamido)-5-cyclopropyl-6-fluoro-2-hydroxy-N-(2-hydroxyethyl)benzamide]",0.77 µM
